This is an account of results in patent US20030138508A1 (priority 2001, published 2003).

The test system of data set [1] is Male ICR mice. Particulars: mouse, in vivo, iv.
The test system of data set [2] is Male ICR mice. The conditions noted are these: mouse, in vivo, iv. This is another data set of the same source.
The format of data set [3] is physicochemical.
For data set [4], the system named is Male ICR mice. Particulars: mouse, in vivo, iv, 0.7 mg/kg.

As for `CCCCCc1cc(O)c2c(c1)OC(C)(C)[C@@H]1CCC(C)=C[C@@H]21` [THC, Δ^9-Tetrahydrocannabinol], in the data set on Male ICR mice [1], the inactive dose was 0.7 mg/kg. The “LD50 [95% CL's]” value with Male ICR mice [2] was 75.4 [66.5-85.5] mg/kg. Moreover, the recovery from aerosol in data set [3] is given as roughly 87.5%. Moreover, the TI with Male ICR mice [4] is reported as 47.
